According to the OPERA property sets (Mansouri et al. 2018):

Conditions: for log10 biotransformation half-life (days) / log10 BCF: fish

Structure (SMILES)	boiling point [°C]	melting point [°C]	other results
CC(=O)OO[N+](=O)[O-]	106		log10 Henry constant (atm·m³/mol): -3.56
O=Cc1c(F)c(F)c(F)c(F)c1F	167	20	
C#C/C=C\C	48.4		
CC(C)C=CC(=O)O	217	35	
CCCCC(=O)O[C@]1(C(=O)CO)CC[C@H]2[C@@H]3CCC4=CC(=O)C=C[C@]4(C)[C@H]3[C@@H](O)C[C@@]21C		212	
O=C1c2ccccc2C(=O)C1c1ccc(F)cc1		120	
NC(=O)C[C@H](O)C(=O)O		148	
CCOC(=O)c1ccccc1	212	-34	log10 Koc (L/kg): 2.3; log10 vapour pressure (mmHg): -0.574
CCc1cccc2c1CCCC2	245	-44.5	
CCCCC(=O)c1ccc(C)cc1	256	-2	
Clc1ccc2c(c1)Oc1ccccc1O2		88	log10 vapour pressure (mmHg): -4.89
C=COC=O			log10 vapour pressure (mmHg): 2.5
CCCCCCCCCCCCCCCC(=O)OC(=O)CCCCCCCCCCCCCCC		64	
c1cnc2c(c1)CCCC2	222		
CN(C)c1ccc2ccccc2c1	305	52.5	
OCC1CO1 (stereo not drawn)			ready biodegradability: readily biodegradable
CNCCc1ccccc1	206		
COc1cc2c(cc1OC)[C@]1(O)C(=O)c3ccc4c(c3O[C@@H]1CO2)C=CC(C)(C)O4		198	
Oc1ccc(C2CCCC2)cc1		65	
CCC(=O)Cc1ccccc1	230		
Brc1ccc(-c2ccccc2)cc1	310	91.5	log10 vapour pressure (mmHg): -2.63; ready biodegradability: readily biodegradable
O=C(O)CNCC(=O)O		248	
COC(=O)C=Cc1ccccc1	260	36	log10 vapour pressure (mmHg): -1.46

Structure (SMILES)	boiling point [°C]	melting point [°C]	other results
CCC(Br)C(C)Br (stereo not drawn)	178	-56	
Oc1ccc(Br)c2cccnc12		124	
CC(CCl)CBr (stereo not drawn)	155		
C=C(C)C(OC(C)=O)OC(C)=O	191		
O=[N+]([O-])CC(O)C(Cl)(Cl)Cl (stereo not drawn)		45.5	
CCOC(=O)[C@@H](C)Oc1ccc(Oc2nc3ccc(Cl)cc3o2)cc1			log10 vapour pressure (mmHg): -7.52
Nc1ccc(C(=O)O)cc1O		213	
O=C(CC(=O)c1ccccc1)c1ccccc1		70.5	ready biodegradability: readily biodegradable
CCCCCCCCCC(C)=O	232	15	log10 Henry constant (atm·m³/mol): -4.2; log10 vapour pressure (mmHg): -1.38
COC(=O)c1ccc(N)cc1		110	
CCN(CC)C(=O)c1cccnc1	298	25	
CCCC(O)(CC)CC	160		
CCC(=O)OC(=O)CC	170	-45	log10 vapour pressure (mmHg): 0.134; ready biodegradability: readily biodegradable
CCCCc1ccc2cc(C)c(C)cc2c1			log10 biotransformation half-life (days): 0.24
FC(F)(F)CBr	26	-93.9	
Oc1c(I)cc(Cl)c2cccnc12		178	
O=C1CCc2cc(OCCCCc3nnnn3C3CCCCC3)ccc2N1		160	
CCCCCCCCC#N	224	-34.2	ready biodegradability: readily biodegradable
Cc1nc2n(c(=O)c1CCN1CCC(c3noc4cc(F)ccc34)CC1)CCCC2		170	
O=C(O)CCCCCCCBr		38.5	
COc1ccc(N)c(C)c1	248	29.5	
CN1C(C(=O)Nc2ccccn2)=C(O)c2ccccc2S1(=O)=O		199	
CCOc1ccc2nc3cc(N)ccc3c(N)c2c1		226	

Structure (SMILES)	boiling point [°C]	melting point [°C]	other results
Cc1cccs1	113	-63.4	log10 Henry constant (atm·m³/mol): -2.62; log10 vapour pressure (mmHg): 1.4
N#Cc1cccc(C(F)(F)F)c1	189	14.5	
Oc1cc(Cl)ccc1Oc1ccc(Cl)cc1Cl		55.6	ready biodegradability: not readily biodegradable; log10 BCF: 1.72
COC(=O)C1(S(=O)(=O)c2ccc(Br)cc2)CCCCC1		112	
CCCCC(C)=O	128	-55.5	log10 Koa: 3.68; log10 vapour pressure (mmHg): 1.06; ready biodegradability: not readily biodegradable
O=C(C=Cc1ccccc1)NCCO		101	
CCCCCCC#N	183		
Cl[C@H]1CC[C@@H](Cl)CC1		18	
CC1=CC(=O)CCC1(C)C	217		
O=C(O)c1ccc(C(=O)O)nc1		254	ready biodegradability: not readily biodegradable; log10 BCF: 0.76
CCCOC=O	80.9	-92.9	log10 Koa: 2.66; log10 vapour pressure (mmHg): 1.92
CCB(CC)CC	95	-93	
c1ccc(C2c3ccccc3-c3ccccc32)cc1		147	
O=C(N[C@H](CO)[C@H](O)c1ccc([N+](=O)[O-])cc1)C(Cl)Cl		150	
CC(=O)Nc1cccc(Cl)c1		80	log10 Koc (L/kg): 1.86
Nc1cccc(C(F)(F)F)c1	187	5.5	log10 Koc (L/kg): 2.36
O=C1c2cccc(O)c2C(=O)c2c(O)cccc21		193	
CCOC(=O)C=C1SC(N2CCCCC2)C(=O)N1CC (stereo not drawn)		86.5	
CC1(C)[C@H](C(=O)O[C@H](C#N)c2cccc(Oc3ccccc3)c2)[C@@H]1/C=C(\Cl)C(F)(F)F (single isomer, unassigned)		49.2	
CCOCCc1ccc(OCCN=c2[nH]cnc(CC)c2Cl)c(C)c1C		70	
CCCC(=O)C(=O)CCC	168		
C1CCN(SSN2CCCCC2)CC1		64.2	
CCC1CC1	35.9	-149	

Structure (SMILES)	boiling point [°C]	melting point [°C]	other results
Cc1ccc2ccc3cccc4ccc1c2c34			log10 biodegradation half-life (days): 1.96; log10 biotransformation half-life (days): 0.11
C[Si](C)(C)CBr	116		
C#CC=C	5.1		log10 vapour pressure (mmHg): 3.13
O=C[O-].[Na+]		253	
CCOc1ccc(CC)cc1	210		
C1SCSCS1		220	
CCO	78.2	-114	log10 Henry constant (atm·m³/mol): -5.3; log10 vapour pressure (mmHg): 1.77; ready biodegradability: readily biodegradable
C=CC(=O)NC(C)C		64	
Cc1ccccc1S(N)(=O)=O			ready biodegradability: not readily biodegradable; log10 BCF: 0.41; log10 biotransformation half-life (days): -0.89
Cl[C@H]1[C@H](Cl)[C@@H](Cl)[C@@H](Cl)[C@H](Cl)[C@H]1Cl (racemic)			log10 Henry constant (atm·m³/mol): -5.5; log10 Koa: 8.29; log10 Koc (L/kg): 3.17; log10 BCF: 3.04
CCC(C)n1c(=O)[nH]c(C)c(Br)c1=O (stereo not drawn)		158	log10 Koc (L/kg): 1.6; log10 vapour pressure (mmHg): -6.51; log10 BCF: 0.51; log10 biotransformation half-life (days): -1.33
C[C@]12C[C@H]3S[C@H]3C[C@@H]1CC[C@@H]1[C@@H]2CC[C@]2(C)[C@@H](O)CC[C@@H]12		127	
C=C(C)Cn1c(N)cc(=O)n(C)c1=O		175	
Clc1ccc(Oc2cc(Cl)cc(Cl)c2)cc1			log10 vapour pressure (mmHg): -3.76
O=C(O)CCCOc1ccc(Cl)cc1Cl	324	118	
CCCCCC1=CCCC1	179	-83	
CCCCCCCBr	179	-58	log10 vapour pressure (mmHg): 0.105
NNc1cc(Cl)ccc1Cl		102	
CCOC(N)=O	185	49	log10 vapour pressure (mmHg): -0.582; ready biodegradability: not readily biodegradable
CON(C)C(=O)Nc1ccc(Cl)c(Cl)c1		93	log10 Koc (L/kg): 2.7; log10 vapour pressure (mmHg): -5.84; ready biodegradability: not readily biodegradable; log10 BCF: 1.25; log10 biotransformation half-life (days): -0.97
Cc1ccc2nccc(C)c2c1	274	22	
COc1ccccc1OCC(O)CO (stereo not drawn)		78.5	
CC(C)(c1ccccc1)C(C)(C)c1ccccc1			log10 biotransformation half-life (days): 0.87
